Measurements reported in ChEMBL document CHEMBL1201862, “PubChem BioAssay data set” (2004).
Activity calls are given as the source filed them.

Key:
Major prion protein = Major prion protein (Homo sapiens, UniProt P04156); type: functional, cell-based
cells [1] = assay: cells
cells [2] = type: functional
Kallikrein-7 = Kallikrein-7 (Homo sapiens, UniProt P49862); assay: Fluorescence Intensity-based biochemical primary high throughput dose response assay to identify activators of kallikrein-7 (K7) zymogen.
[3] = target: NAD-dependent protein deacylase sirtuin-5, mitochondrial (Homo sapiens, UniProt Q9NXA8); assay: sirtuin-5 deacylation blockers, concentration series – biochemical, fluorescence imaging, cherry-pick, set 5, dose response (AID 720591);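 note: desuccinylation of succinyl peptide AMC substrate read as fluorescence after trypsin release; potency of inhibitors that lower fluorescence and may act on trypsin instead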
HEK293 = assay: Fluorescence-based counterscreen for potentiators or agonists of NPY-Y2: cell-based high-throughput dose response assay to identify inhibitors of cyclic nucleotide gated ion channel (CNGC) activity. In this assay, the parental HEK293 cell line transfected with a cyclic-nucleotide gated ion channel (CNGC)-based cAMP sensor is used to measure inhibition of isoproterenol-induced CNGC activity by test compound.; type: functional; conditions: Homo sapiens;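 note: stimulus is 1 µM isoproterenol at EC100 plus PDE inhibitor Ro 20-1724 at 25 µM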
[4] = target: T1, Neuropeptide Y receptor type 2 (Homo sapiens, UniProt P49146); assay: Fluorescence-based cell-based high-throughput dose response assay for agonists of NPY-Y2. [Related pubchem assays: 1703 (Screening assay (CNGC inhibitors).), 1359 (Screening assay (NPY-Y2 potentiators or agonists).), 1304 (Screening assay (NPY-Y1 potentiators or agonists).), 1710 (Screening assay (NPY-Y2 agonists).), 1791 (Summary AID.)]; type: functional
T1 sequence (P49146 whole entry): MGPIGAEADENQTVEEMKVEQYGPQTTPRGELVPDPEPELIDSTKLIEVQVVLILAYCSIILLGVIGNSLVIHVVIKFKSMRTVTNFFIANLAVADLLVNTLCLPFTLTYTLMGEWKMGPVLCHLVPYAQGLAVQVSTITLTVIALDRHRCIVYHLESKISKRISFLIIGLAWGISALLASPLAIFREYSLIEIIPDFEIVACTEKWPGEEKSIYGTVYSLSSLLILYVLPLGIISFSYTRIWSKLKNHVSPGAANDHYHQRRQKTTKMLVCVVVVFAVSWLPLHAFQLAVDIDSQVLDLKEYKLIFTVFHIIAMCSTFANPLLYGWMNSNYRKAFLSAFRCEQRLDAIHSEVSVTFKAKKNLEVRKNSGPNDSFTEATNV

[5] = target: T2, Neuropeptide Y receptor type 1 (Homo sapiens, UniProt P25929); assay: Fluorescence-based counterscreen for agonists of NPY-Y2: cell-based high-throughput dose response assay for agonists of NPY-Y1.; type: functional
T2 sequence (P25929 whole entry): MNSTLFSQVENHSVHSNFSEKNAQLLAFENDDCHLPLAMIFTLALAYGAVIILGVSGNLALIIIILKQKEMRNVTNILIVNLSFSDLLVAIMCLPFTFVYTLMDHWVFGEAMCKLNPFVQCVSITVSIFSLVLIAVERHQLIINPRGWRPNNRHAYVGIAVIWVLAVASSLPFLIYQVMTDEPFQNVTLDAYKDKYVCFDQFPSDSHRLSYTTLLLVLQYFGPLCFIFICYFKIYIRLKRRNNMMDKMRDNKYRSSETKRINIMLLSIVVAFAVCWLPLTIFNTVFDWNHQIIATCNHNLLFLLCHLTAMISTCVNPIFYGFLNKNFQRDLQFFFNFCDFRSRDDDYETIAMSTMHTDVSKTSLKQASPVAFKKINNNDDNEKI

[6] = Trypanosoma cruzi growth suppression in host cells – NIH3T3 host cells, beta-gal luminescence, confirmation (AID 2044); type: functional, cell-based;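 note: intracellular parasites grown in NIH/3T3 mouse fibroblasts as host cells; luminescent beta-galactosidase reporter signal from transgenic T. cruzi replicating inside host cells; inhibitors lower the luminescence signal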
[7] = NIH3T3 cell viability loss – ATP luminescence, mouse fibroblasts, counter-screen, dose response (AID 2010); type: functional, cell-based;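 note: cells exposed to compound for about 90 hours before reading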
[8] = A549 cell cytotoxicity, dose response, cytotoxicity control, plate reader, cherry-pick, antagonist series (AID 743412); type: functional, cell-based
[9] = toxicity toward HepG2 liver cells – cell-based, plate reader, cherry-pick, antagonist series, cytotoxicity control, dose response (AID 743416); type: functional
[10] = viability loss in HEK293 cells – cell-based, plate reader, cherry-picked samples, cytotoxicity control, dose response (AID 743446); type: functional
[11] = blockers of HIV-1 envelope-mediated cell-cell fusion – cherry-pick, dose response (AID 652057); type: functional, cell-based
[12] = blockers of HIV-1 ZM109 envelope-driven cell-cell fusion – HeLa effector, CEM target cells, luciferase, cherry-pick, dose response (AID 652058); type: functional, cell-based;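 note: luciferase signal from HIV-1 Env mediated cell-cell fusion of effector and target cells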
[13] = off-target signal loss in HeLa-CEM21 co-culture – HeLa F-luc CTL cells, cherry-picked, counter-screen for HIV-1 Env fusion inhibitor project, dose response (AID 652040); type: functional, cell-based;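 note: potency for signal decrease marking cytotoxic or nonspecific inhibition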
[14] = HIV-1 AD8 envelope cell-cell fusion blockers – cherry-pick, dose response (AID 652062); type: functional, cell-based;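 note: luciferase signal from cell-cell fusion driven by HIV-1 clade B AD8 Env; potency is for inhibitors of fusion seen as a drop in luminescence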

CN(C(=O)CSc1cc(C(=O)c2nccn2C)c2ccccc2n1)c1ccccc1
IC50 (Major prion protein): 11.4 µM (inactive)
IC50 (cells [1]): > 138 µM (inactive)

COC(=O)C(C)Oc1ccc2cc(-c3ccccc3)c(=O)oc2c1 (configuration not stated)
IC50 (cells [2]): 6.14 µM (active)
EC50 (Kallikrein-7): 5.16 µM (active)

O=C(O)CCNc1nc(C(F)(F)F)nc2ccccc12
AC50 [3]: 1.64 µM (active)

Cc1c(C(=O)c2ccccc2C(=O)O)sc2ccccc12
IC50 (Major prion protein): 8.21 µM (active)
IC50 (cells [1]): > 138 µM (inactive)

CCOC(=O)c1ccc(-n2c(=S)sc3c(O)nc(C)nc32)cc1
EC50 (HEK293): > 35.4 µM (not active)
EC50 [4]: > 35.4 µM (not active)
EC50 [5]: > 35.4 µM (not active)

CCOC(=O)c1c(C)n(C)c2ccc(OCC(O)CNCCc3ccccc3)cc12 (configuration not stated)
EC50 [6]: 601 nM (active)
EC50 [7]: 4.89 µM (active)
AC50 [8]: 37.7 µM (active)
AC50 [9]: 21.9 µM (active)
AC50 [10]: > 52 µM (inactive)

Cc1oc2c(C)c3oc(=O)c(CCC(=O)NCCCCCC(=O)O)c(C)c3cc2c1C
EC50 (Kallikrein-7): > 69.5 µM (inactive)

COc1cc2oc(=O)cc(-c3ccc(-c4ccc(CO)cc4)cc3)c2c(OC)c1OC
AC50 [11]: 12.1 µM (active)
AC50 [12]: 5.08 µM (active)
AC50 [13]: 8.61 µM (active)
AC50 [14]: 13.2 µM (active)

Cc1nc(SCCC(=O)O)c2ccccc2n1
IC50 (Major prion protein): 0.915 µM (active)
IC50 (cells [1]): > 138 µM (inactive)
